{
  "source": "PubChem BioAssay (NCI)",
  "experiment_in_all_cases": "NCI anticancer screen, dose series, 48 h",
  "key": {"MALME-3M melanoma": {"system": "MALME-3M melanoma"}, "RPMI-8226 leukemia": {"system": "RPMI-8226 leukemia"}, "KM12 colon": {"system": "KM12 colon"}, "SR leukemia": {"system": "SR leukemia"}, "IGROV1 ovarian": {"system": "IGROV1 ovarian"}, "RXF 393 renal": {"system": "RXF 393 renal"}, "OVCAR-5 ovarian": {"system": "OVCAR-5 ovarian"}, "NCI-H23 lung": {"system": "NCI-H23 lung"}, "MDA-MB-435": {"system": "MDA-MB-435"}, "786-0 renal": {"system": "786-0 renal"}, "NCI/ADR-RES ovarian": {"system": "NCI/ADR-RES ovarian"}, "UACC-257 melanoma": {"system": "UACC-257 melanoma"}, "UO-31 renal": {"system": "UO-31 renal"}, "LOX IMVI melanoma": {"system": "LOX IMVI melanoma"}, "COLO 205 colon": {"system": "COLO 205 colon"}, "SK-MEL-5 melanoma": {"system": "SK-MEL-5 melanoma"}, "MOLT-4 leukemia": {"system": "MOLT-4 leukemia"}, "NCI-H226 lung": {"system": "NCI-H226 lung"}, "HCC-2998 colon": {"system": "HCC-2998 colon"}, "CAKI-1 renal": {"system": "CAKI-1 renal"}, "HOP-92 NSCLC": {"system": "HOP-92 NSCLC"}, "A498 renal": {"system": "A498 renal"}, "BT-549 breast": {"system": "BT-549 breast"}, "OVCAR-4 ovarian": {"system": "OVCAR-4 ovarian"}, "SF-268 CNS": {"system": "SF-268 CNS"}, "SNB-75 CNS": {"system": "SNB-75 CNS"}, "CCRF-CEM leukemia": {"system": "CCRF-CEM leukemia"}, "A549 NSCLC": {"system": "A549 NSCLC"}, "OVCAR-8 ovarian": {"system": "OVCAR-8 ovarian"}},
  "note": "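Each compound was tested at five concentrations against cells in 96-well plates for 48 hours. GI50: concentration for 50% inhibition of growth. TGI: total growth inhibition.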",
  "data": [
    {"smiles": "CCN(CC)CCn1c2ccc(O)cc2c2sc3cc(OC)ccc3c(=O)c21", "values": [
      {"measurement": "TGI", "setting": "MALME-3M melanoma", "value": 4.01, "unit": "µM"},
      {"measurement": "GI50", "setting": "RPMI-8226 leukemia", "value": 1.95, "unit": "µM"},
      {"measurement": "TGI", "setting": "RPMI-8226 leukemia", "value": 4.88, "unit": "µM"},
      {"measurement": "GI50", "setting": "KM12 colon", "value": 1.84, "unit": "µM"},
      {"measurement": "TGI", "setting": "KM12 colon", "value": 3.72, "unit": "µM"},
      {"measurement": "GI50", "setting": "SR leukemia", "value": 1.11, "unit": "µM"},
      {"measurement": "TGI", "setting": "SR leukemia", "value": 3.15, "unit": "µM"},
      {"measurement": "GI50", "setting": "IGROV1 ovarian", "value": 1.59, "unit": "µM"},
      {"measurement": "TGI", "setting": "IGROV1 ovarian", "value": 4.52, "unit": "µM"},
      {"measurement": "GI50", "setting": "RXF 393 renal", "value": 1.3, "unit": "µM"},
      {"measurement": "TGI", "setting": "RXF 393 renal", "value": 2.68, "unit": "µM"},
      {"measurement": "GI50", "setting": "OVCAR-5 ovarian", "value": 2.22, "unit": "µM"},
      {"measurement": "TGI", "setting": "OVCAR-5 ovarian", "value": 4.68, "unit": "µM"},
      {"measurement": "GI50", "setting": "NCI-H23 lung", "value": 1.56, "unit": "µM"},
      {"measurement": "TGI", "setting": "NCI-H23 lung", "value": 3.18, "unit": "µM"},
      {"measurement": "GI50", "setting": "MDA-MB-435", "value": 1.64, "unit": "µM"},
      {"measurement": "TGI", "setting": "MDA-MB-435", "value": 3.1, "unit": "µM"},
      {"measurement": "GI50", "setting": "786-0 renal", "value": 1.39, "unit": "µM"},
      {"measurement": "TGI", "setting": "786-0 renal", "value": 2.79, "unit": "µM"},
      {"measurement": "GI50", "setting": "NCI/ADR-RES ovarian", "value": 1.23, "unit": "µM"},
      {"measurement": "TGI", "setting": "NCI/ADR-RES ovarian", "value": 4.01, "unit": "µM"},
      {"measurement": "GI50", "setting": "UACC-257 melanoma", "value": 2.1, "unit": "µM"},
      {"measurement": "TGI", "setting": "UACC-257 melanoma", "value": 4.68, "unit": "µM"},
      {"measurement": "GI50", "setting": "UO-31 renal", "value": 1.9, "unit": "µM"},
      {"measurement": "TGI", "setting": "UO-31 renal", "value": 11.5, "unit": "µM"},
      {"measurement": "GI50", "setting": "LOX IMVI melanoma", "value": 1.21, "unit": "µM"},
      {"measurement": "TGI", "setting": "LOX IMVI melanoma", "value": 2.59, "unit": "µM"},
      {"measurement": "GI50", "setting": "COLO 205 colon", "value": 3.08, "unit": "µM"},
      {"measurement": "TGI", "setting": "COLO 205 colon", "value": 17.9, "unit": "µM"},
      {"measurement": "GI50", "setting": "SK-MEL-5 melanoma", "value": 1.74, "unit": "µM"},
      {"measurement": "TGI", "setting": "SK-MEL-5 melanoma", "value": 3.14, "unit": "µM"},
      {"measurement": "GI50", "setting": "MOLT-4 leukemia", "value": 0.389, "unit": "µM"},
      {"measurement": "TGI", "setting": "MOLT-4 leukemia", "value": 1.71, "unit": "µM"},
      {"measurement": "GI50", "setting": "NCI-H226 lung", "value": 10.4, "unit": "µM"},
      {"measurement": "TGI", "setting": "NCI-H226 lung", "value": 24.2, "unit": "µM"},
      {"measurement": "GI50", "setting": "HCC-2998 colon", "value": 1.47, "unit": "µM"},
      {"measurement": "TGI", "setting": "HCC-2998 colon", "value": 2.91, "unit": "µM"},
      {"measurement": "GI50", "setting": "CAKI-1 renal", "value": 3.73, "unit": "µM"},
      {"measurement": "TGI", "setting": "CAKI-1 renal", "value": 17, "unit": "µM"},
      {"measurement": "GI50", "setting": "HOP-92 NSCLC", "value": 2.58, "unit": "µM"},
      {"measurement": "TGI", "setting": "HOP-92 NSCLC", "value": 17, "unit": "µM"},
      {"measurement": "GI50", "setting": "A498 renal", "value": 3.08, "unit": "µM"},
      {"measurement": "TGI", "setting": "A498 renal", "value": 16.5, "unit": "µM"},
      {"measurement": "GI50", "setting": "BT-549 breast", "value": 6.09, "unit": "µM"},
      {"measurement": "TGI", "setting": "BT-549 breast", "value": 19.9, "unit": "µM"},
      {"measurement": "GI50", "setting": "OVCAR-4 ovarian", "value": 1.81, "unit": "µM"},
      {"measurement": "TGI", "setting": "OVCAR-4 ovarian", "value": 4.04, "unit": "µM"},
      {"measurement": "GI50", "setting": "SF-268 CNS", "value": 7.34, "unit": "µM"},
      {"measurement": "TGI", "setting": "SF-268 CNS", "value": 24.5, "unit": "µM"},
      {"measurement": "GI50", "setting": "SNB-75 CNS", "value": 2.39, "unit": "µM"},
      {"measurement": "TGI", "setting": "SNB-75 CNS", "value": 17.4, "unit": "µM"},
      {"measurement": "GI50", "setting": "CCRF-CEM leukemia", "value": 1.09, "unit": "µM"},
      {"measurement": "TGI", "setting": "CCRF-CEM leukemia", "value": 4.5, "unit": "µM"},
      {"measurement": "GI50", "setting": "A549 NSCLC", "value": 1.63, "unit": "µM"},
      {"measurement": "TGI", "setting": "A549 NSCLC", "value": 4.3, "unit": "µM"},
      {"measurement": "GI50", "setting": "OVCAR-8 ovarian", "value": 2.1, "unit": "µM"},
      {"measurement": "TGI", "setting": "OVCAR-8 ovarian", "value": 7.26, "unit": "µM"}
    ]}
  ]
}
